Each compound was assayed against T1, human metabotropic glutamate receptor 2 (mGluR2) (Homo sapiens, UniProt Q14416) (assay: [35S]GTPγS binding assay (Affinity to mGluR2)). Settings: cell membrane fraction of HEK293 cells stably expressing human mGluR2; glutamic acid 10 μM.
T1 construct: expressed in transfected cells; co-expressing human SLC1A3), cell membrane fraction
Type: biochemical
Procedure: (Preparation of Cell Membrane Fraction of HEK293 Cells Stably Expressing Human Metabotropic Glutamate Receptor 2 (mGluR2))
HEK293 cells stably expressing human mGluR2 and human glutamate transporter SLC1A3 were cultured in a Dulbecco's modified Eagle's medium with 10% fetal bovine serum (50 units/mL of penicillin, 50 μg/mL of streptomycin, 60 μg/mL of geneticin, 400 μg/mL of hygromycin B and 2 mM of glutamine) at 37° C. under 5% CO2. Confluent cell cultures were washed twice with PBS(−), and then scraped off with a cell scraper, and subjected to centrifugal separation at 4° C. and 1500 rpm for 5 minutes for collecting cells. The centrifuged sediment (cell pellet) was homogenized in a 20 mM HEPES buffer containing 10 mM EDTA (pH 7.4) by using sonicator and centrifuged at 4° C. and 1500×g for 30 minutes. The supernatant (soluble fraction) was subjected to the centrifugal separation at 4° C. and 40,000×g for 30 minutes, and thus, insoluble fraction was obtained. After additional centrifugally washing the obtained fraction with 20 mM HEPES buffer containing 10 mM EDTA (pH 7.4), the pellet was centrifugally suspended with a 20 mM HEPES buffer containing 0.1 mM EDTA, and the cell membrane fraction was obtained by the centrifugal separation at 4° C. and 40,000×g for 30 minutes. The thus obtained cell membrane fraction was suspended in a 20 mM HEPES buffer containing 0.1 mM EDTA in a protein concentration of 3 mg/mL, which was stored at −80° C.
([^35S]GTPγS binding assay)
The frozen cell membrane fraction prepared as described above was thawed before use, and the resultant was diluted with a buffer for a binding assay (final concentrations: 20 mM HEPES, 100 mM NaCl, 1 mM MgCl2, 3 μM GDP, 300 μg/mL saponin, 0.1% BSA). The compound of each example was added to a cell membrane fraction containing 1.8 to 3 μg/assay of membrane protein on a plate, followed by incubation at room temperature for 30 minutes. Thereafter, with glutamic acid (in a final concentration of 10 μM) added thereto, incubation was performed at room temperature for 15 minutes, and thereafter, [^35S]GTPγS (in a final concentration of 0.8 kBq) and 588 μg WGA-SPA beads were added thereto, followed by incubation at room temperature for 1 hour. After the incubation, the plate was subjected to the centrifugal separation at 2,500 rpm and room temperature, and then, membrane cell binding radioactivity was measured with a top count.
A [^35S]GTPγS binding amount obtained by performing the above-described reaction in the absence of glutamic acid was defined as nonspecific binding, and a difference from a [^35S]GTPγS binding amount obtained in the presence of glutamic acid was defined as specific binding. On the basis of ratios of inhibiting the specific binding at various concentrations of the compounds of the respective examples, inhibition curves were obtained. Concentrations of the compounds of the respective examples at which the specific [^35S]GTPγS binding amount was suppressed by 50% (IC50 values) were calculated on the basis of the inhibition curves and shown in Table 3.

T1 sequence (Q14416 19-872): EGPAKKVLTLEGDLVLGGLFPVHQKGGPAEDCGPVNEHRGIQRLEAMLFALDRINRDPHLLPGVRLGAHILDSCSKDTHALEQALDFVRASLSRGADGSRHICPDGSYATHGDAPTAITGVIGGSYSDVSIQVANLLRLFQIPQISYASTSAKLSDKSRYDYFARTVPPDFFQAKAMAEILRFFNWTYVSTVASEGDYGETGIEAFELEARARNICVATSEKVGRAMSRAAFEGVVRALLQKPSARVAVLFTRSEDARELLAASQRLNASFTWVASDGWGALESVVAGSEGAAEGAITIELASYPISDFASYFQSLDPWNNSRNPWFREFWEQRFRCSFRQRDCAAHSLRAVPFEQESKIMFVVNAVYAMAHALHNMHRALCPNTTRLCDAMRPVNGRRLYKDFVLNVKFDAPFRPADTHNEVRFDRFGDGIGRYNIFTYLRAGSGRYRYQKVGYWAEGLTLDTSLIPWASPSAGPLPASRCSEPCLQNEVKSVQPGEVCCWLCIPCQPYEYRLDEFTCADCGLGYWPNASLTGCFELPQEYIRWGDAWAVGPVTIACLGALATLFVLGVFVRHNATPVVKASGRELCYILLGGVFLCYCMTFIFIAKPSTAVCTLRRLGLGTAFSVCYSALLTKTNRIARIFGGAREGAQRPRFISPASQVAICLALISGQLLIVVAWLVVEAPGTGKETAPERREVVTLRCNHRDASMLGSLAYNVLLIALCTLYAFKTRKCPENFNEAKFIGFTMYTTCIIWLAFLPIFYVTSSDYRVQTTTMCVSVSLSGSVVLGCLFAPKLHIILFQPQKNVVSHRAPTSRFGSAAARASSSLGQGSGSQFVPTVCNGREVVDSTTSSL

SMILES | IC50 [nM]
COc1ccc(-c2nc(-c3ccc(S(=O)(=O)NC(C)(C)C)cc3)c3n2C[C@@H](C)OCC3)cc1 [Example 10] | 1.8
CCOc1ccc(-c2nc(-c3ccc(S(=O)(=O)NC)cc3)c3n2C[C@@H](C)OCC3)cc1 [Example 34] | 7
CNS(=O)(=O)c1ccc(-c2nc(-c3ccc(OC)cc3)n3c2CCO[C@H](C)C3)cc1 [Example 29] | 26.8
CCOc1ccc(-c2nc(-c3ccc(S(=O)(=O)NC4(C)CCC4)cc3)c3n2C[C@@H](C)OCC3)cc1 [Example 36] | 1.3
CCNS(=O)(=O)c1ccc(-c2nc(-c3ccc(OC)cc3)n3c2CCO[C@H](C)C3)cc1 [Example 30] | 7.4
C[C@@H]1Cn2c(-c3ccc(F)cc3)nc(-c3ccc(S(=O)(=O)NC4CC4)cc3)c2CCO1 [Example 16] | 4.2
CCOc1ccc(-c2nc(-c3ccc(S(=O)(=O)NC(C)(C)C)cc3)c3n2C[C@@H](C)OCC3)cc1 [Example 7] | 3.6
CCOc1ccc(-c2nc(-c3ccc(S(=O)(=O)NC4CCC4)cc3)c3n2C[C@@H](C)OCC3)cc1 [Example 33] | 3
C[C@@H]1Cn2c(-c3ccc(OCF)cc3)nc(-c3ccc(S(=O)(=O)NC4CCC4)cc3)c2CCO1 [Example 19] | 6.3
C[C@@H]1Cn2c(-c3ccc(OC(F)F)cc3)nc(-c3ccc(S(=O)(=O)NC(C)(C)C)cc3)c2CCO1 [Example 9] | 2.7
CC1Cn2c(-c3ccc(F)cc3)nc(-c3ccc(S(=O)(=O)NC4(C)CCC4)cc3)c2CCO1 (stereo not drawn) [Example 17] | 2.3
CC(C)NS(=O)(=O)c1ccc(-c2nc(-c3ccc(OC(F)F)cc3)n3c2CCO[C@H](C)C3)cc1 [Example 12] | 1.4
C[C@@H]1Cn2c(-c3ccc(OCF)cc3)nc(-c3ccc(S(=O)(=O)NC(C)(C)C)cc3)c2CCO1 [Example 5] | 2.7
C[C@@H]1Cn2c(-c3ccc(OCF)cc3)nc(-c3ccc(S(=O)(=O)NC4CC4)cc3)c2CCO1 [Example 18] | 3.6
CNS(=O)(=O)c1ccc(-c2nc(-c3ccc(OCF)cc3)n3c2CCO[C@H](C)C3)cc1 [Example 20] | 21.8
CC(C)NS(=O)(=O)c1ccc(-c2nc(-c3ccc(OCF)cc3)n3c2CCO[C@H](C)C3)cc1 [Example 4] | 3.3
CC1Cn2c(-c3ccc(OCF)cc3)nc(-c3ccc(S(=O)(=O)NC4(C)CCC4)cc3)c2CCO1 (stereo not drawn) [Example 22] | 3.1
CC(C)NS(=O)(=O)c1ccc(-c2nc(-c3ccc(F)cc3)n3c2CCO[C@H](CF)C3)cc1 [Example 40] | 2.6
CC1Cn2c(-c3ccc(OC(F)F)cc3)nc(-c3ccc(S(=O)(=O)NC4(C)CCC4)cc3)c2CCO1 (stereo not drawn) [Example 27] | 2.3
CCOc1ccc(-c2nc(-c3ccc(S(=O)(=O)NC4CC4)cc3)c3n2C[C@@H](C)OCC3)cc1 [Example 32] | 3.9
C[C@@H]1Cn2c(-c3ccc(F)cc3)nc(-c3ccc(S(=O)(=O)NC(C)(C)C)cc3)c2CCO1 [Example 13] | 4
CNS(=O)(=O)c1ccc(-c2nc(-c3ccc(OC(F)F)cc3)n3c2CCO[C@H](C)C3)cc1 [Example 25] | 3.1
C[C@@H]1Cn2c(-c3ccc(OC(F)F)cc3)nc(-c3ccc(S(=O)(=O)NC4CCC4)cc3)c2CCO1 [Example 24] | 2.7
CNS(=O)(=O)c1ccc(-c2nc(-c3ccc(F)cc3)n3c2CCO[C@H](C)C3)cc1 [Example 14] | 9.8
C[C@@H]1Cn2c(-c3ccc(OC(F)F)cc3)nc(-c3ccc(S(=O)(=O)NC4CC4)cc3)c2CCO1 [Example 23] | 1.6
COc1ccc(-c2nc(-c3ccc(S(=O)(=O)NC4(C)CCC4)cc3)c3n2CC(C)OCC3)cc1 (stereo not drawn) [Example 31] | 3
CCNS(=O)(=O)c1ccc(-c2nc(-c3ccc(OC(F)F)cc3)n3c2CCO[C@H](C)C3)cc1 [Example 26] | 3.7
C[C@@H]1Cn2c(-c3ccc(F)cc3)nc(-c3ccc(S(=O)(=O)NC4CCC4)cc3)c2CCO1 [Example 37] | 2.3
CCOc1ccc(-c2nc(-c3ccc(S(=O)(=O)NC(C)C)cc3)c3n2C[C@@H](C)OCC3)cc1 [Example 6] | 3.2
COc1ccc(-c2nc(-c3ccc(S(=O)(=O)NC4CC4)cc3)c3n2C[C@@H](C)OCC3)cc1 [Example 28] | 7.4

Continued, values first:

IC50 [nM] | SMILES
11.9 | CC(C)NS(=O)(=O)c1ccc(-c2nc(-c3ccc(OCF)cc3)n3c2CCO[C@H](CF)C3)cc1 [Example 51]
2.2 | COc1ccc(-c2nc(-c3ccc(S(=O)(=O)NC4(C)CCC4)cc3)c3n2C[C@@H](CF)OCC3)cc1 [Example 45]
4.1 | CC1(NS(=O)(=O)c2ccc(-c3nc(-c4ccc(OCF)cc4)n4c3CCO[C@H](CF)C4)cc2)CCC1 [Example 57]
4.7 | CC(C)NS(=O)(=O)c1ccc(-c2nc(-c3ccc(OC(F)F)cc3)n3c2CCO[C@H](CF)C3)cc1 [Example 53]
3.9 | CCNS(=O)(=O)c1ccc(-c2nc(-c3ccc(OC(F)F)cc3)n3c2CCO[C@H](CF)C3)cc1 [Example 59]
4.3 | COc1ccc(-c2nc(-c3ccc(S(=O)(=O)NC(C)C)cc3)c3n2C[C@@H](C)OCC3)cc1F [Example 62, (R)—N-isopropyl-4-(3-(3-fluoro-4-methoxyphenyl)-6-methyl-5,6,8,9-tetrahydroimidazo[1,5-d][1,4]oxazepin-1-yl)benzenesulfonamide]
3.1 | COc1ccc(-c2nc(-c3ccc(S(=O)(=O)NC(C)C)cc3)c3n2C[C@@H](CF)OCC3)cc1 [Example 43]
9.5 | CCNS(=O)(=O)c1ccc(-c2nc(-c3ccc(OCC)cc3)n3c2CCO[C@H](CF)C3)cc1 [Example 50]
15.3 | O=S(=O)(NC1CCC1)c1ccc(-c2nc(-c3ccc(OCF)cc3)n3c2CCO[C@H](CF)C3)cc1 [Example 58]
3.9 | COc1ccc(-c2nc(-c3ccc(S(=O)(=O)NC(C)(C)C)cc3)c3n2C[C@@H](C)OCC3)cc1F [Example 63]
4.1 | CC(C)(C)NS(=O)(=O)c1ccc(-c2nc(-c3ccc(OCF)cc3)n3c2CCO[C@H](CF)C3)cc1 [Example 52]
6.7 | Cc1ccc(-c2nc(-c3ccc(S(=O)(=O)NC(C)C)cc3)c3n2C[C@@H](C)OCC3)cc1F [Example 65]
2.9 | CCOc1ccc(-c2nc(-c3ccc(S(=O)(=O)NC(C)(C)C)cc3)c3n2C[C@@H](CF)OCC3)cc1 [Example 55]
10.7 | CCNS(=O)(=O)c1ccc(-c2nc(-c3ccc(OCF)cc3)n3c2CCO[C@H](CF)C3)cc1 [Example 56]
2.1 | CC(C)(C)NS(=O)(=O)c1ccc(-c2nc(-c3ccc(F)cc3)n3c2CCO[C@H](CF)C3)cc1 [Example 41]
6.3 | COc1ccc(-c2nc(-c3ccc(S(=O)(=O)NC4CC4)cc3)c3n2C[C@@H](CF)OCC3)cc1 [Example 47]
4.6 | O=S(=O)(NC1CCC1)c1ccc(-c2nc(-c3ccc(OC(F)F)cc3)n3c2CCO[C@H](CF)C3)cc1 [Example 60]
4.5 | Cc1ccc(-c2nc(-c3ccc(S(=O)(=O)NC(C)(C)C)cc3)c3n2C[C@@H](C)OCC3)cc1F [Example 64]
11.2 | CCOc1ccc(-c2nc(-c3ccc(S(=O)(=O)NC4CC4)cc3)c3n2C[C@@H](CF)OCC3)cc1 [Example 49]
9.8 | CCNS(=O)(=O)c1ccc(-c2nc(-c3ccc(F)cc3)n3c2CCO[C@H](CF)C3)cc1 [Example 42]
2.3 | COc1ccc(-c2nc(-c3ccc(S(=O)(=O)NC4CCC4)cc3)c3n2C[C@@H](CF)OCC3)cc1 [Example 44]

— patent publication US20160052937A1, “Tetrahydroimidazo[1,5-d][1,4]oxazepine compound” (Eisai R&D Management Co., Ltd., priority 2014, published 2016)
